Data published in patent US20140328940A1, “MODULATION OF AXON DEGENERATION” (Genentech, Inc., priority 2009, published 2014).
“Also recorded” adds a separate entry of the source. *1 amine or outer side, *2 acyl side, *3 side chain or, on linkers, in order; H or OH if unused. Where a SMILES comes first, the peptide text is derived from it. Bridges are numbered along the chain shown (N, C = ends). Roman numbers before positions name the chains, in order. [ ]: non-standard residue; d: D form. Actinocin(9to1) = Cc1c2oc3c(C)ccc(C(=O)[*:1])c3nc-2c(C(=O)[*:2])c(N)c1=O; NMeV = CN[C@H](C(=O)O)C(C)C; Sar = CNCC(=O)O

What was measured:
Type in all cases: cell-based, mouse
[1] = tested on: DRG neurons (axon vs. cell body compartment); assay: Campenot chamber local axon degeneration (anti-NGF in axon compartment)
Method: Teflon dividers (Tyler Research) were cleaned by washing in water and wiping them clean of any residual grease. Dividers were then soaked in Nochromix (Godax Laboratories)/sulfuric acid overnight, rinsed five times in distilled and autoclaved water (SQ water), boiled for 30 minutes, and then air-dried before use
Mouse laminin (5 μg/ml in sterile filtered water; Invitrogen) was added to PDL coated 35 mm dishes (BD Biosciences) and they were incubated for 1 hour at 37° C., followed by two rinses in SQ water. The dishes were vacuum-dried and then air-dried in a laminar flow hood for 15 minutes. Prepared dishes were then scored with a pin rake (Tyler Research). […] High vacuum grease (VWR) was added to each Teflon divider under a dissection scope. The laminin coated PDL dishes were inverted and dropped onto the Teflon divider, with additional pressure added by use of a toothpick in the non-track-containing regions. Dishes were incubated for 1 hour at 37° C. Five hundred microliters of NBM+MC (50 ng/ml NGF) solution was added to each of the side compartments, and a grease barrier was added in front of the center cell slot.
Free E13.5 spinal cords were dissected from mouse embryos and placed into NBM+MC (25 ng/ml NGF) solution. DRGs were detached from the spinal cord with a tungsten needle. An NBM+MC-lubricated P200 pipette was used to move DRGs into a 1.5 ml tube. DRGs were pelleted with a tabletop centrifuge for 30 seconds. The supernate was discarded and 0.05% Trypsin/EDTA (cold) was added. The pellet was resolubilized with a pipette and incubated at 37° C. for 15 minutes with constant agitation (650 RPM). The sample was again centrifuged and the supernate discarded. The pellet was resuspended in warm NBM+MC (50 ng/ml NGF) solution and triturated with a flamed glass pipette 20 times, followed by trituration with a fire-bored glass pipette another 20 times. The samples were again centrifuged and the resulting pellets were resuspended in 0.5 ml NBM+MC (50 ng/ml NGF) solution. The cells were diluted to a final concentration of 2.5×10^6 cells/ml. The cell suspensions were loaded into a 1 ml syringe with a 22 gauge needle. The center slot of the Campenot divider was filled using the syringe (to a volume of at least 50 μl). The Campenot chamber was incubated overnight at 37° C. 2.5 ml NGF+MC (50 ng/ml NGF) solution was added to the center compartment and the grease gate was removed. The outer medium (cell body compartment) was replaced after three days with 2.5 ml NBM+MC medium (with 25 ng/ml NGF). After five days in culture, one distal compartment was washed three times with warmed NBM+MC (no NGF) solution. After the third wash, 500 μl NBM+MC (no NGF) solution was added to the axon compartment in combination with either 0.5% DMSO or an inhibitor. The cell body compartment was replaced with 2.5 ml NBM+MC medium (with 25 ng/ml NGF) containing either 0.5% DMSO or inhibitor.
After 28 hours of anti-NGF antibody treatment, 8% PFA/30% sucrose solution (see above) was added directly to the culture medium at a 1:1 dilution and incubated for 30 minutes. The Teflon divider was removed after the first 15 minutes of addition. The system was washed once with 2.5 ml PBS prior to immunostaining. Neurons were blocked in 5% BSA/0.2% triton in PBS for 30 minutes. The primary antibody Tuj1 (Covance) was added to a final dilution of 1:1000 in PBS containing 2% BSA and incubated overnight at 4° C. The dish was washed once with PBS. […] The dish was washed twice with PBS, and a 22×22 mm coverslip (VWR) was added with 350 μl of fluoromount G (Electron Microscopy Sciences). The neurons were visualized by use of a fluorescence microscope.
As described above, E13.5 DRGs were isolated and grown for 5 days in a Campenot chamber.

DRGs [2] = assay: anti-NGF antibody (NGF withdrawal) screen for inhibitors of axon degeneration in DRG explants; conditions: inhibitor 100 μM or 10 μM added 1 hour before 25 μg/ml anti-NGF; 20 hours; actin stain
Method: The anti-NGF antibody model described above in Example 1 was used in a screen for inhibitors of neuron or axon degeneration. A library of more than 400 small molecules (Tocris Bioscience) was tested to see which, if any, modulate degeneration observed in the presence of anti-NGF antibodies.
Mouse E13.5 embryos were dissected and placed into L15 medium (Invitrogen). The spinal cord was dissected out from the embryos with DRGs attached. The spinal cords with DRGs attached were placed into L15 medium+5% goat serum (Gibco) on ice. The DRGs were removed using a tungsten needle and the remaining spinal cord was disposed of. Eight well slides were filled with N3-F12 solution (23 ml Ham's F12, 1 ml N3 supplement, and 1 ml 1 M glucose) to which was added 25 ng/ml NGF (Roche). (N3 supplement was made by dilution of N3 100× concentrate, which was made by mixing the following ingredients, in the following order: 5.0 ml Hank's buffered saline solution (HBSS; Ca, Mg free; Invitrogen), 1.0 ml bovine serum albumin (10 mg/ml in HBSS=150 μm), 2.0 ml Transferrin (T1147-1G, human, 100 mg/ml in HBSS=1.1 mM), 1.0 ml sodium selenite (S9133-1MG, 0.01 mg/ml in HBSS 58 μM), 0.4 ml putrescine dihydrochloride (P5780-5G, 80 mg/ml in HBSS=500 mM), 0.2 ml progesterone (P8783-5G, 0.125 mg/ml in absolute ethanol=400 μM), 0.02 ml corticosterone (C2505-500MG, 2 mg/ml in absolute ethanol=5.8 mM), 0.1 ml triiodothyonine, sodium salt (T6397-100MG, 0.2 mg/ml in 0.01 N NaOH=300 μM), 0.4 ml insulin (16634-250MG, bovine pancreas, 241 U/mg, 25 mg/ml in 20 mM HCl=4.4 mM), for a total volume of 10.02 ml (can be stored at −20° C.). An N3 supplement stock was made by combining the following: 10 ml Pen/Strep (100×, Gibco), 10 ml glutamine (200 mM, Gibco), 10 ml MEM vitamins (100×, Gibco), 10 ml N3 concentrate (100×, see above), for a total volume of 40 ml. The mixture was filter sterilized using a 0.22 μm filter, and 1-2 ml aliquots were stored at −20° C.).
The DRGs were sectioned into halves and placed in the center of each well of an 8-chamber slide (BD Biocoat PDL/Laminin coated glass, Becton Dickinson). The DRGs were permitted to attach to the slide at room temperature for 5-10 minutes, followed by an overnight incubation at 37° C. Inhibitors of choice were added at a concentration of 100 μM (top row) or 10 μM (bottom row) 1 hour before adding anti NGF antibodies. The anti-NGF antibodies were added to the right half of the slide (4 wells) at a concentration of 25 μg/ml. After incubation for 20 hours at 37° C., the slides were fixed with 30% sucrose/8% paraformaldehyde (PFA) by adding 250 μl of the fix solution directly to the 250 μl of culture medium. (To make the 30% sucrose/8% PFA solution, the following ingredients were added to a 600 ml beaker including a stir bar: 250 ml 16% PFA (cat#15710-S, Electron Microscopy Sciences), 50 ml 10×PBS pH 7.4, and 150 g sucrose. The solution was mixed under low heat until dissolved, and then 6-8 drops of 1 M NaOH were added to bring the pH to 7.4. The volume was then brought to 500 ml with water in a graduated cylinder. The solution was mixed well, placed in aliquots, and frozen.) The s ides were fixed for 30 minutes, followed by washing once with PBS. All cells were labeled with an actin stain (Alexa-568 conjugated phalloidin; 1:40; Invitrogen), a membrane dye (DiO; 1:200; Invitrogen), and a DNA stain (Hoechst 33258; 1:10,000; Invitrogen) in 0.1% Triton and 1% goat serum for 2 hours at room temperature. […]

DRG explants = assay: pan-JNK inhibitors in NGF withdrawal assay on DRG explants; conditions: for concentration at which most protective: DRG explants, NGF withdrawal; for protection of DRG explants from NGF-dependent degeneration: treated with anti-NGF and inhibitor
Method: If DLK inhibition protects neurons from degeneration through limiting the phosphorylation of JNK2 and JNK3, then inhibitors of JNK2 or JNK3 should also protect neurons from cell death and axon degeneration. The ability of direct JNK inhibition to protect neurons against NGF withdrawal-dependent degeneration was also assessed. DRG explants were treated with anti-NGF and either pan-JNK inhibitor JNKV or JNKVIII, prior to assessment in the NGF withdrawal assay described above.

DRGs [3] = assay: G-protein/GPCR inhibitors in NGF withdrawal-induced degeneration in DRGs; conditions: 0.1 μM, 1 μM, 10 μM or 100 μM (FIGS. 49 and 50)
Method: The assays described herein identified several inhibitors of G-proteins and G-protein coupled receptors (GPCRs) that decrease degeneration in neurons. Experiments were performed in DRGs to verify the role of G-proteins and GPCRs in degeneration pathways. The experimental protocols used in these experiments are the same as those described in Example 14. Pertussis toxin and SCH 202676 were purchased from Tocris Bioscience.

[4] = tested on: cerebellar granule neurons (CGNs); assay: serum deprivation/KCl reduction degeneration of cerebellar granule neurons; conditions: 5 μM; 5 mM KCl, 24 hours
[5] = inhibitor 5 μM in axon compartment
[6] = inhibitor 5 μM in cell body compartment

SMILES: COc1ccc(CNC(=O)Nc2ncc([N+](=O)[O-])s2)cc1 [AR-A014418]
- Axon Compartment (protection of NGF-deprived axons) ([1]; inhibitor 20 μM in axon compartment): No (1)
- Cell Body Compartment (protection of NGF-deprived axons) ([1]; inhibitor 20 μM in cell body compartment): Yes (1)

SMILES: Cc1c2oc3c(C)ccc(C(=O)N[C@@H]4C(=O)N[C@H](C(C)C)C(=O)N5CCC[C@H]5C(=O)N(C)CC(=O)N(C)[C@@H](C(C)C)C(=O)O[C@@H]4C)c3nc-2c(C(=O)N[C@@H]2C(=O)N[C@H](C(C)C)C(=O)N3CCC[C@H]3C(=O)N(C)CC(=O)N(C)[C@@H](C(C)C)C(=O)O[C@@H]2C)c(N)c1=O [Actinomycin D] (I: T[dV]P[Sar][NMeV] / II: T[dV]P[Sar][NMeV]; ester I:1-I:C, II:1-II:C; linker I:N-II:N via Actinocin(9to1))
- formation of varicosities in locally NGF-deprived axons [1]: large number of axons with varicosities, as well as fragmented axons
- Axon Compartment (protection of NGF-deprived axons) ([1]; inhibitor 15 μM in axon compartment): No (4)
- Axon Compartment (protection of NGF-deprived axons) ([1]; inhibitor 15 μM in axon compartment, listed as Act D): failed to prevent degeneration
- Cell Body Compartment (protection of NGF-deprived axons) ([1]; inhibitor 15 μM in cell body compartment): Yes (4)
- Cell Body Compartment (protection of NGF-deprived axons) ([1]; inhibitor 15 μM in cell body compartment, listed as Act D): did not degenerate; also recorded: protected from local degeneration

SMILES: OC(CN1CCNCC1)Cn1c2ccc(Br)cc2c2cc(Br)ccc21 (centres unmarked) [Bax Channel Blocker]
- Comments (observations on compounds found to protect against neurodegeneration) (DRGs [2]): Cell bodies detach

SMILES: C[C@@H]1C[C@@H]([C@H](O)CC2CC(=O)NC(=O)C2)C(=O)[C@@H](C)C1 [Cycloheximide]
- Axon Compartment (protection of NGF-deprived axons) [1, 5]: No (2)
- Cell Body Compartment (protection of NGF-deprived axons) [1, 6]: Yes (2)

SMILES: C=C[C@@]1(C)CC(=O)[C@]2(O)[C@@]3(C)[C@@H](O)CCC(C)(C)[C@@H]3[C@H](O)[C@H](OC(C)=O)[C@@]2(C)O1 [Forskolin]
- Axon Compartment (protection of NGF-deprived axons) ([1]; inhibitor 3 μM in axon compartment): Yes (2)
- Cell Body Compartment (protection of NGF-deprived axons) ([1]; inhibitor 3 μM in cell body compartment): Yes (2)

SMILES: O=C1NC(=O)C(c2cn(CCCO)c3ncccc23)=C1c1cnccn1 [GSK3 inhibitor XI]
- Axon Compartment (protection of NGF-deprived axons) ([1]; inhibitor 30 μM in axon compartment, anti-NGF on axons 28 hours, number in parentheses not explained): No (2)
- Cell Body Compartment (protection of NGF-deprived axons) ([1]; inhibitor 30 μM in cell body compartment, anti-NGF on axons 28 hours, number in parentheses not explained): Yes (2)

SMILES: CCOc1nc(NC(=O)Cc2cc(OC)ccc2OC)cc(N)c1C#N [JNKVIII]
- concentration at which most protective (DRG explants): 4 µM
- protection of DRG explants from NGF-dependent degeneration (DRG explants): able to protect

SMILES: N#C/C(=C1/Nc2ccccc2S1)c1ccnc(NCCc2cccnc2)n1 [JNKV]
- concentration at which most protective (DRG explants): 5 µM
- protection of DRG explants from NGF-dependent degeneration (DRG explants): able to protect

SMILES: C=C[C@@]1(C)CC(=O)[C@]2(O)[C@@]3(C)[C@@H](O)CCC(C)(C)[C@@H]3[C@H](OC(=O)CCN(C)C)[C@H](OC(C)=O)[C@@]2(C)O1 [NKH 477]
- Comments (observations on compounds found to protect against neurodegeneration) (DRGs [2]): Partial

SMILES: C[S+]([O-])c1ccc(-c2nc(-c3ccc(F)cc3)c(-c3ccncc3)[nH]2)cc1.Cl (centres unmarked) [SB 203580 HCl]
- Comments (observations on compounds found to protect against neurodegeneration) (DRGs [2]): Partial

SMILES: CN=c1nc(-c2ccccc2)n(-c2ccccc2)s1 [SCH 202676]
- NGF withdrawal-induced degeneration in DRGs (DRGs [3]): decreases

SMILES: O=C1c2ccccc2-c2n[nH]c3cccc1c23 [SP600125]
- Axon Compartment (protection of NGF-deprived axons) [1, 5]: Yes (1)
- Cell Body Compartment (protection of NGF-deprived axons) [1, 6]: Yes (1)
- Axon Compartment (protection of NGF-deprived axons) ([1]; inhibitor 10 μM in axon compartment): Yes (1)
- Cell Body Compartment (protection of NGF-deprived axons) ([1]; inhibitor 10 μM in cell body compartment): Yes (1)
- protection of cerebellar granule neurons from serum deprivation/KCl reduction [4]: protect

SMILES: C[C@@H](NC(=O)/C(C#N)=C/c1ccc(O)c(O)c1)c1ccccc1 [Tyrphostin B44]
- Comments (observations on compounds found to protect against neurodegeneration) (DRGs [2]): Partial

SMILES: CCN(c1ccccc1)c1cc(NC)[n+](C)c(C)n1 [ZD7288]
- Axon Compartment (protection of NGF-deprived axons) [1, 5]: No (3)
- Cell Body Compartment (protection of NGF-deprived axons) [1, 6]: Yes (3)
